The record followed here is US20170121295A1, “POLYCYCLIC LPA1 ANTAGONIST AND USES THEREOF” (AMIRA PHARMACEUTICALS, INC., priority 2010, published 2017).

The test system of series [1] is human A2058 melanoma cells. In words: LPA1 Chemotaxis Assay. The class given is cell-based. The note with it: 100 nM LPA, read-out: IC50, LPA-driven chemotaxis. The method, then:
Chemotaxis of the A2058 human melanoma cells was measured using the Neuroprobe ChemoTx® System plates (8 μm pore size, 5.7 mm diameter sites). The filter sites were coated with 0.001% fibronectin (Sigma) in 20 mM Hepes, pH 7.4 and allowed to dry. A2058 cells were serum-starved for 24 hours, then harvested with Cell Stripper and resuspended in DMEM containing 0.1% fatty-acid-free bovine serum albumin (BSA) to a concentration of 1×10^6/ml. Cells were mixed with an equal volume of test compound (2×) in DMEM containing 0.1% fatty-acid-free BSA and incubated at 37° C. for 15 minutes. LPA (100 nM in DMEM containing 0.1% fatty-acid-free BSA) or vehicle was added to each well of the lower chamber and 50 μl of the cell suspension/test compound mix was applied to the upper portion of the ChemoTx plate. Plates were incubated at 37° C. for three hours and then the cells removed from the upper portion by rinsing with PBS and scraping. The filter was dried then stained with HEMA 3 Staining System (Fisher Scientific). The absorbance of the filter was read at 590 nm and IC50s were determined using Symyx Assay Explorer.

A short description of series [2]: Pharmacokinetics in Male Beagle Dogs. The class given is in vivo. The following applies: free acid dosed orally at 5 mg/kg. The method, then:
The pharmacokinetics of Compound 1 and Compound 2 was assessed in male Beagle dogs.
Dosing of male Beagle dogs (n=3) was performed. Compound 1 or Compound 2 was dosed intravenously at 2 mg/kg (fasted) and orally (fasted or non-fasted) at 5 mg/kg. In fasted animals, food was withheld a minimum of 12 hours prior to dosing and then returned 4 hours post-dose. Non-fasted animals were allowed to feed 1 hour prior to dosing ad libitum. Compound 2 capsules were given by oral gavage in the fasted state. Plasma samples were collected by Perry Scientific study personnel.
The capsules are noted in Table 25 below. Capsules were size 0 gelatin (Capsugel, Peapack, N.J.). Tablet formulations are noted in Example 24.
For the clinical drug product oral solution of active agent (1.67 mg/mL), sucralose (0.5% w/w) and cherry flavor (0.5% w/w) is added to the formulation as a sweetener and taste masking agent, respectively to a 0.5% methocel aqueous solution.
Blood samples (approximately 1 mL total blood) were taken from each dog at pre-dose, and an initial time of 5 or 15 min and then various time points up to 24 hours post-dose (10-11 samples per animal). Samples were collected on wet ice in tubes containing potassium EDTA. After each blood draw, the cannula was flushed with an equivalent volume of heparinized saline (0.1 mL at 40 units/mL). Plasma samples, prepared by centrifugation of whole blood, were stored frozen (−80° C.) prior to analysis.

Another series concerns the target LPA5 (Homo sapiens, UniProt Q9H1C0). In words: LPA5 Calcium Flux Assay. The class given is cell-based. The note with it: read-out: Ca Flux IC50 LPA5. In general terms: Calcium assays in cells follow changes in intracellular calcium, usually with a dye or a luminescent sensor.
The next series deals with LPA4 (Homo sapiens, UniProt Q99677). In words: LPA4 Calcium Flux Assay. The class given is cell-based. The following applies: read-out: Ca Flux IC50 LPA4.
LPA4, sequence (Q99677 whole entry, species assumed): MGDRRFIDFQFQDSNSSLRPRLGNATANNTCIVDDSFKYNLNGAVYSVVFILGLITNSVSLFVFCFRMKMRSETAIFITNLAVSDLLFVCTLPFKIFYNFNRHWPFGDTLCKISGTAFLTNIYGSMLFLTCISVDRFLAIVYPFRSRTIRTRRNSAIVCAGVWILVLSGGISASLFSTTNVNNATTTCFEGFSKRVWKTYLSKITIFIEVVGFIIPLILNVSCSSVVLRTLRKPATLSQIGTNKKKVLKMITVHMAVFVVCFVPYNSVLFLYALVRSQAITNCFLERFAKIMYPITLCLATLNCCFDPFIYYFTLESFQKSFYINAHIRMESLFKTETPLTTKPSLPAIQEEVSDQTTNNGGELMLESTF
Series [3] can be described thus: Metabolite identification in hepatocytes. The format is in vitro ADME, rat, dog, monkey, human. The note with it: rat, dog or human hepatocytes. Here is the method: Rat, dog, monkey, or human hepatocytes were thawed according to the supplier's instructions. Cells were counted using the Trypan Blue method, and then diluted to 1×10^6 viable cells/ml with KB medium. Compound 1 was tested at 30 μM and incubated for up to 2 hours in rat hepatocytes and 4 hours in dog, monkey or human hepatocytes at 37° C. Reactions were terminated with addition of 3 times incubation volume of acetonitrile, centrifuged, and supernatants were transferred, nitrogen blow dried and reconstituted in 50% acetonitrile in water for LC/MS analysis.
LC/MS/MS analysis was carried out with a Sciex API-4000Qtrap tandem mass spectrometer (Applied Biosystems/Life Technologies, Carlsbad, Calif.) interfaced to a high-performance liquid chromatography system consisting of an Agilent 1200 series pump (Foster City, Calif.) and a LEAP Technologies PAL autoinjector (Carrboro, N.C.).
Parent/metabolite analysis was conducted in the positive ion mode (ESI) by multiple reaction monitoring of parent. The mobile phases contained 10 mM ammonium acetate in water with 0.05% formic acid (solvent A) and 10 mM ammonium acetate in 50% acetonitrile/50% methanol with 0.05% formic acid (solvent B). For Compound 1, the flow rate was maintained at 1 mL/min and the total run time was 2.5 min. Analytes were separated on a YMC ODS-AQ column (2.1×150 mm; 3 μm) and eluted with a linear gradient as follows: • 1. mobile phase was held for 0.5 min at 5% B, • 2. B was increased from 5% to 95% over the next 0.2 min, • 3. B was held constant for 1.3 min at 95%, and • 4. B was returned to the initial gradient conditions.
GSH adducts were investigated in microsomes, hepatocytes and rat bile using several methods including the neutral loss of pyroglutamate (129 Da) as well as a precursor ion scans of Compound 1 (105 Da, 318 Da and 438 Da).
For metabolite quantitation, the flow rate was maintained at 0.25 mL/min and the total run time was 60 min. Analytes were separated using a linear gradient as follows: • 1. mobile phase was held for 5 min at 5% B, • 2. B was increased from 5% to 95% over the next 45 min. • 3. […]

LPA5, sequence (Q9H1C0 whole entry, species assumed): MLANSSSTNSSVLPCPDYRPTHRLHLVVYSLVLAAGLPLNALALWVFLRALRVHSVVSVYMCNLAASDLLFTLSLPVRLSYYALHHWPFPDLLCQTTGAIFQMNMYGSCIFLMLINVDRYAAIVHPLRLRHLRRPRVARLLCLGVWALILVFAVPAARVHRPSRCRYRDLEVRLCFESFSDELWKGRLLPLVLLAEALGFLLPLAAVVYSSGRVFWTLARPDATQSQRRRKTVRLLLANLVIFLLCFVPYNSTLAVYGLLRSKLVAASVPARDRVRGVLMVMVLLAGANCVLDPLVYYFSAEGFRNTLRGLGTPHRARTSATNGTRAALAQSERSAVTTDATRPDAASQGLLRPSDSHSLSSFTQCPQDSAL

The IC50 is the concentration at which inhibition is half-maximal. Broadly, the bioavailability is dose-corrected exposure relative to a reference, in per cent. With `Cc1noc(-c2ccc(-c3ccc(C4(C(=O)O)CC4)cc3)cc2)c1NC(=O)O[C@H](C)c1ccccc1` [Compound 1, 1-{4′-[3-methyl-4-((R)-1-phenyl-ethoxycarbonylamino)-isoxazol-5-yl]-biphenyl-4-yl}-cyclopropanecarboxylic acid], the IC50 is less than 0.1 µM in series [1], greater than 1 µM at LPA5 and greater than 1 µM on LPA4. For the same molecule, the exposure result in series [2] was “reduced exposure”. In series [2] (male, Beagle, dog, plasma, po, 5 mg/kg, read-out: apparent oral bioavailability), the bioavailability was found to be 19%. The “GSH adduct in hepatocytes” value in series [3] is “No GSH adduct was observed”.
